Experimental data taken from patent US6987184B2, “Isothiazoloanthrones, isoxazoloanthrones, isoindolanthrones and derivatives thereof as JNK inhibitors and compositions and methods related” (Signal Pharmaceuticals, LLC, priority 2001, dated 2006).

Columns and labels:
[1] = Brain-blood plasma distribution in vivo; set-up: species or system Sprague-Dawley rats; conditions: rat, 10 mg/kg intravenously, 2 hr post-dose
Procedure: Compound CC was administered intravenously (10 mg/kg) into the veins of Sprague-Dawley rats. After 2 hr, blood samples were obtained from the animals and their vascular systems were perfused with approximately 100 mL of saline to rid their brains of blood. The brains were removed from the animals, weighed, and homogenized in a 50 mL conical tube containing 10 equivalents (w/v) of methanol/saline (1:1) using a Tissue Tearer (Fischer Scientific). The homogenized material was extracted by adding 600 μL of cold methanol to 250 μL of brain homogenate vortexed for 30 sec and subjected to centrifugation for 5 min. After centrifugation, 600 μL of the resulting supernatant was transferred to a clean tube and evaporated at room temperature under reduced pressure to provide a pellet. […] The brain homogenate analysis samples, plasma analysis samples, and standard analysis samples were analyzed and compared using HPLC by injecting 100 μL of a sample onto a 5 μm C-18 Luna column (4.6 mm×150 mm, commercially available from Phenomenex of Torrance, Calif.) and eluting at 1 mL/min with a linear gradient of 30% aqueous acetonitrile containing 0.1% trifluoroacetic acid to 90% aqueous acetonitrile containing 0.1% trifluoroacetic acid over 8 minutes and holding at 90% aqueous acetonitrile containing 0.1% trifluoroacetic acid for 3 min. with absorbance detection at 450 nm. […]

[2] = test system: rat ventral mesencephalan neurons; experiment: [3H]Dopamine cell culture assay (6-OHDA neurotoxicity); assay type: cell-based; conditions: approximately 3×10^−6 M compound; 6-OHDA 30 μM; uptake 22 hrs after exposure; FIG. 1
Procedure: Cultures of dopaminergic neurons were prepared according to a modification of the procedure described by Raymon and Leslie (J. Neurochem. 62, 1015-1024, 1994). Time-mated pregnant rats were sacrificed on embyronic day 14-15 (crown rump length 11-12 mm) and the embryos removed by cesarean section. The ventral mesencephalon, containing the dopaminergic neurons, was dissected from each embryo. Tissue pieces from approximately 48 embryos were pooled and dissociated both enzymatically and mechanically. An aliquot from the resulting cell suspension was counted and the cells were plated in high glucose DMEM/F12 culture medium with 10% fetal bovine serum at a density of 1×10^5 cells/well of a Biocoat poly-D-lysine-coated 96-well plate. The day following plating was considered 1 day in vitro (DIV). Cells were maintained in a stable environment at 37° C., 95% humidity, and 5% CO2. A partial medium change was performed at 3 DIV. […]
[^3H]Dopamine uptake is used as a measure of the health and integrity of dopaminergic neurons in culture (Prochiantz et al., PNAS 76: 5387-5391, 1979). […] Briefly, cells treated with 6-OHDA in the presence and absence of Compound CC were assessed in the uptake assay 22 hrs after exposure to 6-OHDA. […] Radioactivity was removed and the cultures were washed 3× with ice cold PBS. […]

[3] = Solubility in aqueous media; assay type: physicochemical

brain-drug concentration [1]: approximately 65 nmole/g | solubility in aqueous media [3]: limited solubility
Structure (SMILES): Nc1ccc2snc3c2c1C(=O)c1ccccc1-3 [Compound CC]
protection of neurons from 6-OHDA, by [3H]dopamine uptake [2]: protects rat ventral mesencephalan neurons from the toxic effects of 6-OHDA
